# In patent US7851474B2, “Dipiperazinyl ketones and related analogues” (Neurogen Corporation, priority 2005, dated 2010):
# pKi: −log10 of the molar value.
# Target: T1, chimeric human H3 receptor (Homo sapiens, UniProt Q9Y5N1, E19D)
# T1 construct: made in house; host or cells: Sf9 insect cells (baculovirus infection); P2 membrane preparation
# Test: Chimeric human H3 receptor GTP binding assay (agonist-stimulated GTP-gamma35S binding, Example 7)
# Format: biochemical
# Settings: not given
# How it was run: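 Sf9 membranes co-expressing the chimeric receptor and heterotrimeric G-protein subunits, 35 μg protein per tube, in pH 7.4 Tris buffer with 10 μM GDP. Test compounds at 10^−10 to 10^−6 M with 1 μM histamine, 60 min at room temperature. Filter-bound GTP-gamma^35S read by scintillation; IC50 from non-linear regression of dose-response curves.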
# T1 sequence (Q9Y5N1 with tags, fused parts or gaps E19D): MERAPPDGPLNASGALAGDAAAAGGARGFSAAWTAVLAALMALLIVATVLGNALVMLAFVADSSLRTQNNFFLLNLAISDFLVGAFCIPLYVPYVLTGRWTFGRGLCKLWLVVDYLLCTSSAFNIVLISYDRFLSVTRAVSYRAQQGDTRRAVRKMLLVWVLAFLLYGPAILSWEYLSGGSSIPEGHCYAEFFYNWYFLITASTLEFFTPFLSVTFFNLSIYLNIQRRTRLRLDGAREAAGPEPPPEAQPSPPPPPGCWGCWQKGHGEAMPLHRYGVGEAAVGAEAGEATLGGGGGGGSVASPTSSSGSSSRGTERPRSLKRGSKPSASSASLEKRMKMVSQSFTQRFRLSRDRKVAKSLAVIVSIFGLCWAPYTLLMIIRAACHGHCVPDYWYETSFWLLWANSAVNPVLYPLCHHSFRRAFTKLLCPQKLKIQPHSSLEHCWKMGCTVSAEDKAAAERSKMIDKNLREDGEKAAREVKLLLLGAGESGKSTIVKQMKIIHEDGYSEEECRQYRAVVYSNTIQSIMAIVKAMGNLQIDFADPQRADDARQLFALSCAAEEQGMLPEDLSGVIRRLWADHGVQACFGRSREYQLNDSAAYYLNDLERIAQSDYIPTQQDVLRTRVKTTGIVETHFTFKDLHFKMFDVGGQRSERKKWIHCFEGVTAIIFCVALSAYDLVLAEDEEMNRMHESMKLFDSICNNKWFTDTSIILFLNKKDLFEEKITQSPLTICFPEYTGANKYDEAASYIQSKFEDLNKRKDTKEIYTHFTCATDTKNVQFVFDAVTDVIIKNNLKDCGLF
row,SMILES,pKi
1,"C=CCN1CCN(C(=O)CN2CCN(c3ccc(C(F)(F)F)cc3)CC2)CC1 [Compound 487, 1-allyl-4-({4-[4-(trifluoromethyl)phenyl]piperazin-1-yl}acetyl)piperazine]",> 6.00

# Same assay, conditions: "*" in Ki of Table II; assay of Example 7; read-out: Ki
row,pKi,SMILES
1,> 6.00,"O=C(N1CCN(C2CCCC2)CC1)N1CCC2(CC1)C(=O)N(Cc1ccccc1)c1ccccc12 [Compound 489, 1-benzyl-1′-[(4-cyclopentylpiperazin-1-yl)carbonyl]spiro[indole-3,4′-piperidin]-2(1H)-one]"
2,> 6.00,"CC(=O)c1cccc(-c2ccc(N3CCN(CC(=O)N4CCN(C5CCC5)CC4)CC3)nn2)c1 [Compound 455, 1-[3-(6-{4-[2-(4-cyclobutylpiperazin-1-yl)-2-oxoethyl]piperazin-1-yl}pyridazin-3-yl)phenyl]ethanone]"

# Same assay, conditions: Table II "Ki", symbol "*": Ki in the assay of Example 7; read-out: Ki
row,pKi,SMILES
1,> 6.00,"O=C(CN1CCN(c2cnc(-c3ccc4c(c3)OCO4)cn2)CC1)N1CCN(C2CCC2)CC1 [Compound 896, 2-(1,3-benzodioxol-5-yl)-5-{4-[2-(4-cyclobutylpiperazin-1-yl)-2-oxoethyl]piperazin-1-yl}pyrazine]"
2,> 6.00,"O=C(CN1CCN(c2ccc(-c3ccncc3)cc2)CC1)N1CCN(C2CCC2)CC1 [Compound 791, 1-cyclobutyl-4-{[4-(4-pyridin-4-ylphenyl)piperazin-1-yl]acetyl}piperazine]"
3,> 6.00,"O=C(CN1CCN(c2cnc(-c3ccc(Cl)c(C(F)(F)F)c3)cn2)CC1)N1CCN(C2CCC2)CC1 [Compound 914, 2-[4-chloro-3-(trifluoromethyl)phenyl]-5-{4-[2-(4-cyclobutylpiperazin-1-yl)-2-oxoethyl]piperazin-1-yl}pyrazine]"

# Same assay, conditions: Table II, "*" in Ki; assay of Example 7; read-out: Ki
row,SMILES,pKi
1,"O=C(CN1CCN(c2ccc(-c3ccc(Cl)cc3Cl)cc2)CC1)N1CCN(C2CCC2)CC1 [Compound 675, 1-cyclobutyl-4-{[4-(2′,4′-dichlorobiphenyl-4-yl)piperazin-1-yl]acetyl}piperazine]",> 6.00
2,"O=C(CN1CCN(c2ccc(C(=O)N3CCCCC3)cn2)CC1)N1CCN(C2CCC2)CC1 [Compound 610, 1-cyclobutyl-4-({4-[5-(piperidin-1-ylcarbonyl)pyridin-1-yl]piperazin-1-yl}acetyl)piperazine]",> 6.00

# Continued, values first:
row,pKi,SMILES
1,> 6.00,"COc1ccc(-c2ccc(N3CCN(CC(=O)N4CCN(C5CCC5)CC4)CC3)cc2)cc1F [Compound 750, 1-cyclobutyl-4-{[4-(3′-fluoro-4′-methoxybiphenyl-4-yl)piperazin-1-yl]acetyl}piperazine]"
2,> 6.00,"Cc1cccc(C)c1N1CCN(CC(=O)N2CCN(C3CCC3)CC2)CC1 [Compound 698, 1-cyclobutyl-4-{[4-(2,6-dimethylphenyl)piperazin-1-yl]acetyl}piperazine]"

# Same assay, conditions: Table II; assay of Example 7; "*" in Ki; read-out: Ki
row,SMILES,pKi
1,"O=C(O)c1ccc(N2CCN(CC(=O)N3CCN(C4CCC4)CC3)CC2)cc1 [Compound 1120, 4-{1-[2-(4-cyclobutylpiperazin-1-yl)-2-oxoethyl]piperazin-1-yl}benzoic acid]",> 6.00
2,"CCN(C(=O)c1cccc(N2CCN(CC(=O)N3CCN(C4CCC4)CC3)CC2)c1)C(C)C [Compound 1066, 3-{4-[2-(4-cyclobutylpiperazin-1-yl)-2-oxoethyl]piperazin-1-yl}-N-ethyl-N-isopropylbenzamide]",> 6.00
3,"Cc1cccc(N2CCN(CC(=O)N3CCN(C4CCC4)CC3)CC2C)c1 (stereo not drawn) [Compound 1104, 4-[2-(4-cyclobutylpiperazin-1-yl)-2-oxoethyl]-2-methyl-1-(3-methylphenyl)piperazine]",> 6.00

# Continued, values first:
row,pKi,SMILES
1,> 6.00,"O=C(CN1CCN(c2cnc(-c3cccc(C(F)(F)F)c3)cn2)CC1)N1CCN(C2CCC2)CC1 [Compound 976, 2-{4-[2-(4-cyclobutylpiperazin-1-yl)-2-oxoethyl]piperazin-1-yl}-5-[3-(trifluoromethyl)phenyl] pyrazine]"
2,> 6.00,"Cc1cccc(C)c1-c1ccc(N2CCN(CC(=O)N3CCN(C4CCC4)CC3)CC2)nn1 [Compound 1059, 3-{4-[2-(4-cyclobutylpiperazin-1-yl)-2-oxoethyl]piperazin-1-yl}-6-(2,6-dimethylphenyl) pyridazine]"
3,> 6.00,"COc1ccc(F)cc1-c1cnc(N2CCN(CC(=O)N3CCN(C4CCC4)CC3)CC2)cn1 [Compound 957, 2-{4-[2-(4-cyclobutylpiperazin-1-yl)-2-oxoethyl]piperazin-1-yl}-5-(5-fluoro-2-methoxyphenyl)pyrazine]"
4,> 6.00,"Cc1ccc(-c2ccc(N3CCN(CC(=O)N4CCN(C5CCC5)CC4)CC3)nn2)cc1C [Compound 1015, 3-{4-[2-(4-cyclobutylpiperazin-1-yl)-2-oxoethyl]piperazin-1-yl}-6-(3,4-dimethylphenyl) pyridazine]"
5,> 6.00,"CC(C)c1ccccc1-c1cnc(N2CCN(CC(=O)N3CCN(C4CCC4)CC3)CC2)cn1 [Compound 971, 2-{4-[2-(4-cyclobutylpiperazin-1-yl)-2-oxoethyl]piperazin-1-yl}-5-(2-isopropylphenyl)pyrazine]"
6,> 6.00,"O=C(CN1CCN(c2ccc(-c3cc(F)ccc3F)nn2)CC1)N1CCN(C2CCC2)CC1 [Compound 1048, 3-{4-[2-(4-cyclobutylpiperazin-1-yl)-2-oxoethyl]piperazin-1-yl}-6-(2,5-difluorophenyl)pyridazine]"
7,> 6.00,"COc1ccc(-c2cnc(N3CCN(CC(=O)N4CCN(C5CCC5)CC4)CC3)cn2)c(C)c1 [Compound 950, 2-{4-[2-(4-cyclobutylpiperazin-1-yl)-2-oxoethyl]piperazin-1-yl}-5-(4-methoxy-2-methylphenyl)pyrazine]"
8,> 6.00,"Cc1cc(C)c(-c2ccc(N3CCN(CC(=O)N4CCN(C5CCC5)CC4)CC3)nn2)c(C)c1 [Compound 1061, 3-{4-[2-(4-cyclobutylpiperazin-1-yl)-2-oxoethyl]piperazin-1-yl}-6-mesitylpyridazine]"

# Same assay, conditions: assay of Example 7; "*" in Ki of Table II; read-out: Ki
row,SMILES,pKi
1,"CCCC(C)C(=O)NC1CCN(CC(=O)N2CCN(C3CCC3)CC2)CC1 (stereo not drawn) [Compound 1210, N-{1-[2-(4-cyclobutylpiperazin-1-yl)-2-oxoethyl]piperidin-4-yl}-2-methylpentanamide]",> 6.00
2,"CCOc1ccc(C(=O)NC2CCN(CC(=O)N3CCN(C4CCC4)CC3)CC2)cc1 [Compound 1221, N-{1-[2-(4-cyclobutylpiperazin-1-yl)-2-oxoethyl]piperidin-4-yl}-4-ethoxybenzamide]",> 6.00

# Other lines, results leading:
row,pKi,SMILES
1,> 6.00,"C=CCNC(=O)c1ccc(N2CCN(CC(=O)N3CCN(C4CCC4)CC3)CC2)nc1 [Compound 1262, N-allyl-6-{4-[2-(4-cyclobutylpiperazin-1-yl)-2-oxoethyl]piperazin-1-yl}nicotinamide]"
2,> 6.00,"CCCCNC(=O)c1ccc(N2CCN(CC(=O)N3CCN(C4CCC4)CC3)CC2)nc1 [Compound 1265, N-butyl-6-{4-[2-(4-cyclobutylpiperazin-1-yl)-2-oxoethyl]piperazin-1-yl}nicotinamide]"
3,> 6.00,"CC(C)NC(=O)c1ccc(N2CCN(CC(=O)N3CCN(C4CCC4)CC3)CC2)nc1 [Compound 1182, 6-{4-[2-(4-cyclobutylpiperazin-1-yl)-2-oxoethyl]piperazin-1-yl}-N-isopropylnicotinamide]"
4,> 6.00,"COC(=O)c1ccc(N2CCN(CC(=O)N3CCN(C4CCC4)CC3)CC2)nc1 [Compound 1202, methyl 6-{4-[2-(4-cyclobutylpiperazin-1-yl)-2-oxoethyl]piperazin-1-yl}nicotinate]"

# Same assay, conditions: assay of Example 7; symbol * in column headed Ki of Table II; read-out: Ki
row,pKi,SMILES
1,> 6.00,"CC1CCN(C2CCN(CC(=O)N3CCN(C4CCCCC4)CC3)CC2)CC1 [Compound 439, 1′-[2-(4-cyclohexylpiperazin-1-yl)-2-oxoethyl]-4-methyl-1,4′-bipiperidine]"
2,> 6.00,"CC(=O)c1ccc(N2CCN(CC(=O)N3CCN(C(C)C)CC3)CC2)cc1 [Compound 329, 1-(4-{4-[2-(4-isopropylpiperazin-1-yl)-2-oxoethyl]piperazin-1-yl}phenyl)ethanone]"
3,> 6.00,"O=C(CN1CCN(c2ccc(F)cc2F)CC1)N1C[C@H]2C[C@@H]1CN2C1CCC1 [Compound 247, (1R,4R)-2-cyclobutyl-5-{[4-(2,4-difluorophenyl)piperazin-1-yl]acetyl}-2,5-diaza bicyclo[2.2.1]heptane]"
4,> 6.00,"CC(=O)c1ccc(N2CCN(CC(=O)N3CCN(C4CCC4)CC3)CC2)nn1 [Compound 372, 1-(6-{4-[2-(4-cyclobutylpiperazin-1-yl)-2-oxoethyl]piperazin-1-yl}pyridazin-3-yl)ethanone]"
5,> 6.00,"CC(=O)c1ccc(-c2cccc(N3CCN(CC(=O)N4CCN(C5CCC5)CC4)CC3)c2)cc1 [Compound 288, 1-(3′-{4-[2-(4-cyclobutylpiperazin-1-yl)-2-oxoethyl]piperazin-1-yl}biphenyl-4-yl)ethanone]"
6,> 6.00,"O=C(CN1CCN(c2ccc(Cl)cc2)CC1)N1CCN(C2CCCC2)CC1 [Compound 358, 1-(4-chlorophenyl)-4-[2-(4-cyclopentylpiperazin-1-yl)-2-oxoethyl]piperazine]"
7,> 6.00,"O=C(CN1CCN(c2cccc(C(=O)N3CCCCCC3)c2)CC1)N1CCN(C2CCC2)CC1 [Compound 289, 1-(3-{4-[2-(4-cyclobutylpiperazin-1-yl)-2-oxoethyl]piperazin-1-yl}benzoyl)azepane]"
8,> 6.00,"CC(=O)c1ccc(N2C(=O)C3(CCN(CC(=O)N4CCN(C5CCC5)CC4)CC3)c3ccccc32)cc1 [Compound 332, 1-(4-acetylphenyl)-1′-[2-(4-cyclobutylpiperazin-1-yl)-2-oxoethyl]spiro[indole-3,4′-piperidin]-2(1H)-one]"
9,> 6.00,"CC(C)N1CCN(C(=O)CN2CCN(c3ccc(F)cc3)CC2)CC1 [Compound 361, 1-(4-fluorophenyl)-4-[2-(4-isopropylpiperazin-1-yl)-2-oxoethyl]piperazine]"
